# Source: patent US20210054028A1, “BACTERIAL SIDEROPHORE GRAMIBACTIN” (Leibniz-Institut für Naturstoff-Forschung und …, priority 2017, published 2021)
# “Also recorded” adds a separate entry of the source. *1 amine or outer side, *2 acyl side, *3 side chain or, on linkers, in order; H or OH if unused. Where a SMILES comes first, the peptide text is derived from it. Bridges are numbered along the chain shown (N, C = ends). [ ]: non-standard residue; d: D form. The star is where a group is joined. dAsp(3R-OH) = N[C@@H](C(=O)O)[C@@H](O)C(=O)O; X1 = O=NN(O)CCC[C@@H](N[*:1])C(=O)[*:2]; d(aThr) = C[C@@H](O)[C@@H](N)C(=O)O; Octanoyl = CCCCCCCC(=O)*
# Key:
# corn plants = experiment: Chlorophyll content determination in hydroponically grown corn plants; format: in vivo, Zea mays L. ssp. saccharata; conditions: 50 μM in nutrient solution; 21 d hydroponic growth; 3rd leaf
# Procedure: Corn plants were grown in nutrient solutions deficient in iron, or supplementing either Fe-EDTA (positive control) or Fe-gramibactin. Solvent and metal-free chelators were used as negative controls. As readout for iron uptake we measured the chlorophyll content of youngest leaves, since chlorophyll biosynthesis is strongly dependent on iron availability (11).
# Seeds from maize (Zea mays L. ssp. saccharata) were commercially acquired (Kiepenkerl) and surface sterilized in 4.5% (v/v) sodium hypochlorite for 10 minutes and subsequently rinsed 5 times with 50 mL sterile distilled water. Seeds were germinated in rolled filter papers soaked with sat. CaSO4 solution for 3 d in at 30° C. in the dark. […]
# Plants were grown hydroponically for 21 days using the above described adjusted nutrient solution. […] The last developed leaf of each plant (3rd leaf) was removed, and fresh weight was determined. […] The residue was dissolved in 1 mL methanol and 1:10 or 1:20 dilutions with methanol were analysed spectrophotometrically using a Shimadzu UV-1800 spectrophotometer. Samples were measured at 25° C. using discardable plastic cuvettes (d=1 cm). […] Chlorophyll contents were calculated using the equations developed by Wellburn.
# [1] = tested on: extracted proteins from corn roots; experiment: In vitro NO release assay with 2,3-diaminonaphthalene probe; format: biochemical, Zea mays L. ssp. saccharata; conditions: 2 mM test substance, 1.2 mM H2O2, 0.2 mM DAN, root proteins, 20 min, pH 6
# Procedure: To probe the proposed enzymatic NO release in vitro, we extracted soluble proteins from ground root tissue of hydroponically grown plants into phosphate buffer. To monitor the liberation of NO in the in vitro enzyme assay, we used 2,3-diaminonaphthalene (DAN) as a reporter. Nitric oxide reacts with this chemical probe to form the 2,3-napthotriazole, and its strong fluorescence can be readily measured using a microplate reader. Extracted root proteins were incubated with the probe, hydrogen peroxide and either Fe-gramibactin or the iron-free ligand, using heat-inactivated proteins as negative control. […] Thus, gramibactin represents a novel NO donor.
# One-week-old plants were harvested and the roots were rinsed with distilled water. After separating the roots from the shoot, the root tissue was frozen using liquid nitrogen and grounded with mortar and pestle. The plant material was then extracted using 1 mL 66 mm NaH2PO4 buffer (pH 6). The extract was centrifuged to remove remaining plant material, and 20 μL of the supernatant were used for in vitro assays. […] Fluorescence was measured using a Varioskan LUX (Thermo Scientific) microplate reader (IEx.=375 nm, IEm.=415 nm). Fluorescence values were normalized to the sample with the highest fluorescence. Every assay was performed in triplicates and every replicate was measured three times, and the mean of all these replicates was plotted. […]
# [2] = Potentiometric and spectrophotometric titrations of the gramibactin/Fe3+ system with EDTA as competitive chelating agent; format: physicochemical; conditions: I=0.1 M KCl
# Description: (§1) To evaluate the actual strength of the siderophore, we conducted potentiometric and spectrophotometric titrations to evaluate the acid/base behavior of gramibactin and to determine the complex formation constant of the iron complex (FIG. 2C). […] It thus appeared conceivable that the rhizosphere bacteria excrete the metal chelator to provide the host plant with iron.
# (§2) Potentiometric ligand competition measurements and calculations have been performed as reported (11) at l=0.1 M in KCl(aq) and at T=25.0±0.1° C., using a Mettler Toledo DL50 apparatus, equipped with a Schott Instruments N6180 combined glass electrode, controlled by LabX light v1.05 software. The titrand solutions consisted in gramibactin (from 0.7 mm to 1 mm), EDTA (as disodium salt) and Fe^3+ (as FeCl3) in different gramibactin:Fe^3+:EDTA ratios, with slight known excess of HCl.
# (§3) This can be explained by a buffering effect of the two N-nitroso-hydroxylamine moieties. […]
# (§4) Titrations were carried out at 0.1 m in KCl(aq) and T=25.0±0.1° C. in a glass cuvette (d=10.00 mm) placed in the spectrometer equipped with a thermostated cell holder. The pH was read out by using a inoLab pH 7110 with a combination electrode (SI analytics, ScienceLine Type N 6000 A). […] UV/Vis-spectra were recorded after every addition of KOH(aq) followed by magnetic stirring (FIG. 12).
# corn roots = experiment: In planta NO release assay with DAF-2DA, fluorescence microscopy; format: in vivo, Zea mays L. ssp. saccharata; conditions: 100 μM; 1.5-2 h after loading with 10 μM DAF-2DA
# Procedure: To verify the postulated NO release in planta we treated fresh corn seedlings with diaminofluoresceine-2-diacetate (DAF-2DA), a cell-permeable probe that captures NO with formation of a highly fluorescent triazole. After loading maize roots with the chemical probe they were incubated with negative controls, gramibactin, or Fe-gramibactin, then cut and inspected by fluorescence microscopy. […] Thus, NO is in fact liberated from gramibactin in the plant tissue. A weak signal was also detectable in the root treated with the Fe-gramibactin complex. This finding is important as it confirms that iron is removed from gramibactin in vivo, thus providing free ligands that can subsequently release nitric oxide. Finally, fluorescence microscopy also allowed localizing NO, which is apparently released into the intracellular space. This observation is plausible as peroxidases, which are required for NO release, are typically located in the cell membrane.
# Young seedlings (2-3 days old) were placed in a vial containing 4 mL standard nutrient solution (see above) with 10 μm 4,5-diaminofluorescein diacetate and incubated at room temperature for 30 min. Seedlings were then removed, and the root was rinsed with deionized water before placing them in nutrient solution containing 100 μm gramibactin, 100 μm Fe-gramibactin or no additive (control). […]
# [3] = Acid/base titration and speciation of gramibactin; format: physicochemical; conditions: physiological pH; I=0.1 M KCl; 25 °C
# Description: as §1, §2, §3, §4
SMILES,higher total chlorophyll content versus iron-free cultured plants (corn plants) [%],"fluorescence of 2,3-naphthotriazole (NO release) [1]","log □ (complex formation constant of the iron complex) ([2]; disodium EDTA as competitive chelating agent, T=25.0±0.1 °C)","protons released upon metal complexation ([2]; potentiometric titration, gramibactin:Fe3+ 1:1, 25 °C)",DAF-2T fluorescence signal in root cross sections (NO release in planta) (corn roots),protonation state of graminine residues (speciation diagram) [3]
O=C([O-])CN(CCN(CC(=O)[O-])CC(=O)[O-])CC(=O)[O-].[Fe+3] [Fe-EDTA],50,–,–,–,–,–
CCCCCCCC(=O)N[C@@H](C(=O)N[C@@H]1C(=O)N[C@H]([C@@H](C)O)C(=O)N[C@H](CCCN(O)N=O)C(=O)NCC(=O)N[C@H](CCCN(O)N=O)C(=O)O[C@@H]1C)[C@@H](O)C(=O)O [gramibactin] (Octanoyl-[dAsp(3R-OH)]T[d(aThr)][X1]G[X1]; ester 2-C),–,drastically increased fluorescence; also recorded: liberates NO,27.6±0.1,four,strong signal; also recorded: liberates NO,both graminine residues are deprotonated at physiological pH
